From ChEMBL document CHEMBL4765442, “Anti-Giardia Drug Discovery: Current Status and Gut Feelings” (J Med Chem, 2020) come the findings set out here.

Series [1] has as its system Giardia intestinalis. Description: Antigiardial activity against Giardia intestinalis WB ATCC 30957 incubated for 72 hrs by hemocytometric counting method. It is filed as functional, organism-based. The note with it: Giardia duodenalis, WB ATCC 30957, 72 h.
Series [2] deals with Giardia intestinalis. Nature of the series: Antigiardial activity against Giardia intestinalis IMSS:0696:1 incubated for 48 hrs followed by wash out by hemocytometric counting method. It is filed as functional, organism-based. Particulars: Giardia duodenalis, IMSS:0696:1, 48 h.
In series [3] the test system is Giardia intestinalis. Nature of the series: Antigiardial activity against metronidazole-resistant Giardia duodenalis 106-2ID10. It is filed as functional.
Series [4] relates to Giardia intestinalis. Description: Antigiardial activity against metronidazole-resistant Giardia duodenalis WB-M3. It is filed as functional.
Series [5] has as its system Giardia intestinalis. Nature of the series: Antigiardial activity against metronidazole-resistant Giardia duodenalis 713-M3. It is filed as functional.
Series [6] can be described thus: Selectivity ratio of CC50 for human HeLa cells incubated for 2 days by alamarBlue reagent to IC50 for Giardia lamblia BRIS/83/HEPU/106 measured after 48 hrs by BacTiter-Glo cell viability assay. It is filed as toxicity. Particulars: read-out: Ratio CC50/IC50.
Series [7] is described as follows: Selectivity ratio of CC50 for human HeLa cells incubated for 2 days by alamarBlue reagent to IC50 for Giardia lamblia BRIS/87/HEPU/713 measured after 48 hrs by BacTiter-Glo cell viability assay. It is filed as toxicity. The note with it: read-out: Ratio CC50/IC50.
In series [8] the test system is Giardia intestinalis. Nature of the series: Antimicrobial activity against Giardia lamblia BRIS/83/HEPU/106 trophozoites measured after 2 days by BacTiter-Glo cell viability assay. The note with it: Giardia duodenalis, BRIS/83/HEPU/106, 48 h. It is filed as functional, organism-based.
Series [9] has as its system Giardia intestinalis. Nature of the series: Antimicrobial activity against Giardia lamblia WB-M2 trophozoites measured after 2 days by BacTiter-Glo cell viability assay. It is filed as functional, organism-based. Particulars: Giardia duodenalis, WB-M2, 48 h.
Series [10] is described as follows: Selectivity ratio of CC50 for human HeLa cells incubated for 2 days by alamarBlue reagent to IC50 for Giardia lamblia 713M3 measured after 48 hrs by BacTiter-Glo cell viability assay. It is filed as toxicity. The note with it: read-out: Ratio CC50/IC50.
Series [11] relates to Giardia intestinalis. Nature of the series: Antimicrobial activity against Giardia lamblia 713M3 trophozoites measured after 2 days by BacTiter-Glo cell viability assay. It is filed as functional, organism-based. Particulars: Giardia duodenalis, 713M3, 48 h.
For series [12], the system named is Giardia intestinalis. Description: Antimicrobial activity against Giardia lamblia BRIS/87/HEPU/713 trophozoites measured after 48 hrs by BacTiter-Glo cell viability assay. The note with it: Giardia duodenalis, BRIS/87/HEPU/713, 48 h. It is filed as functional, organism-based.
Series [13] can be described thus: Selectivity ratio of CC50 for human HeLa cells incubated for 2 days by alamarBlue reagent to IC50 for Giardia lamblia WB-M2 measured after 48 hrs by BacTiter-Glo cell viability assay. It is filed as toxicity. The note with it: time 2 day, read-out: Ratio CC50/IC50.
Series [14] deals with Giardia intestinalis. Description: Antigiardial activity against Giardia intestinalis N1-INP incubated for 48 hrs followed by hemocytometric counting method. It is filed as functional, organism-based. Particulars: Giardia duodenalis.
Series [15] has as its system Giardia intestinalis. Nature of the series: Antigiardial activity against Giardia intestinalis BRIS/91/HEPU/1411 incubated for 48 hrs followed by compound wash out by hemocytometric counting method. The note with it: Giardia duodenalis, BRIS/91/HEPU/1411, 48 h. It is filed as functional, organism-based.
Series [16] relates to Giardia intestinalis. Description: Antigiardial activity against Giardia intestinalis IMSS-1090-1 incubated for 48 hrs followed by hemocytometric counting method. It is filed as functional, organism-based. The note with it: Giardia duodenalis, IMSS-1090-1, 48 h.
In series [17] the test system is Giardia intestinalis. Nature of the series: Antigiardial activity against Giardia intestinalis WB incubated for 48 hrs by hemocytometric counting method. It is filed as functional, organism-based. Particulars: Giardia duodenalis.
For series [18], the system named is Giardia intestinalis. Description: Antigiardial activity against Giardia intestinalis WB30957 incubated for 48 hrs followed by hemocytometric counting method. Particulars: Giardia duodenalis, WB30957, 48 h. It is filed as functional, organism-based.
The subject of series [19] is Giardia intestinalis. Nature of the series: Antigiardial activity against Giardia intestinalis UNAM-0688-2 incubated for 48 hrs followed by hemocytometric counting method. It is filed as functional, organism-based. The note with it: Giardia duodenalis, UNAM-0688-2, 48 h.
Series [20] deals with Giardia intestinalis. Nature of the series: Antigiardial activity against Giardia lamblia WB incubated for 48 hrs by haemocytometric counting method. It is filed as functional. Particulars: Giardia duodenalis, read-out: LD50 (the source's name).
For series [21], the system named is Giardia intestinalis. Description: Antigiardial activity against nitazoxanide resistant Giardia lamblia N1-INP incubated for 48 hrs by haemocytometric counting method. It is filed as functional. Particulars: Giardia duodenalis, read-out: LD50 (the source's name).
Series [22] deals with Giardia intestinalis. Description: Antigiardial activity against drug susceptible Giardia lamblia incubated for 48 hrs by haemocytometric counting method. It is filed as functional. The note with it: Giardia duodenalis, read-out: LD50 (the source's name).
In series [23] the test system is Giardia intestinalis. Description: Antigiardial activity against Giardia duodenalis Ec2 incubated for 3 days by fluorescence method. The note with it: Ec2, 72 h. It is filed as functional, organism-based.
Series [24] deals with Giardia intestinalis. Description: Antigiardial activity against Giardia duodenalis Ah1 incubated for 3 days by fluorescence method. Particulars: Ah1, 72 h. It is filed as functional, organism-based.
Series [25] is described as follows: Half-life of the compound. It is filed as physicochemical.
The subject of series [26] is Giardia intestinalis. Description: Antigiardial activity against Giardia duodenalis G1 incubated for 3 days by fluorescence method. It is filed as functional, organism-based. The note with it: G1, 72 h.
Series [27] concerns Giardia intestinalis. Description: Antigiardial activity against Giardia lamblia WB (ATCC 30957) incubated for 3 days by [3H]thymidine incorporation based assay. Particulars: Giardia duodenalis. It is filed as functional, organism-based.
In series [28] the test system is Giardia intestinalis. Description: Antigiardial activity against Giardia duodenalis Ac1 incubated for 3 days by fluorescence method. It is filed as functional, organism-based. The note with it: Ac1, 72 h.
Series [29] has as its system Giardia intestinalis. Description: Antigiardial activity against Giardia duodenalis Ac2 incubated for 3 days by fluorescence method. It is filed as functional, organism-based. Particulars: Ac2, 72 h.
For series [30], the system named is Giardia intestinalis. Description: Antigiardial activity against Giardia duodenalis WB (ATCC 30957) incubated for 3 days by fluorescence method. It is filed as functional, organism-based. Particulars: WB ATCC 30957, 72 h.
The test system of series [31] is Giardia intestinalis. Description: Antigiardial activity against Giardia duodenalis GS/M-83-H7 (ATCC 50581) incubated for 3 days by fluorescence method. It is filed as functional, organism-based. The note with it: 72 h.
Series [32] relates to Giardia intestinalis. Nature of the series: Antigiardial activity against Giardia duodenalis Ec1 incubated for 3 days by fluorescence method. It is filed as functional, organism-based. Particulars: Ec1, 72 h.
Series [33] deals with Giardia intestinalis. Nature of the series: Antigiardial activity against Giardia duodenalis Ah2 incubated for 3 days by fluorescence method. It is filed as functional, organism-based. Particulars: Ah2, 72 h.
Series [34] concerns Giardia intestinalis. Description: Antigiardial activity against Giardia lamblia 713M3 trophozoites incubated for 3 days by microscopic method. The note with it: time 3 day. It is filed as functional, Giardia duodenalis.
For series [35], the system named is Giardia intestinalis. Description: Antigiardial activity against Giardia lamblia incubated for 48 hrs by ATPLite reagent based luminescence assay. It is filed as functional, organism-based. Particulars: Giardia duodenalis.
In series [36] the test system is Giardia intestinalis. Nature of the series: Antigiardial activity against Giardia lamblia GS/H7 trophozoites incubated for 3 days by microscopic method. It is filed as functional, Giardia duodenalis. The note with it: time 3 day.
The subject of series [37] is Giardia intestinalis. Description: Growth inhibition of Giardia duodenalis isolate 14-03/F7 measured after 24 hrs by resazurin based assay. It is filed as functional, organism-based. Particulars: isolate 14-03/F7, 24 h.

In brackets after ≈: the same amount, converted by molar mass.

Consider `Cc1ncc([N+](=O)[O-])n1CCNC(=O)/C=C/c1ccc([N+](=O)[O-])o1`, for which the IC50 with Giardia intestinalis [1] was determined as 5600 nM.
As for `Cc1ncc([N+](=O)[O-])n1CC(C)OC(=O)NC1CCCCC1` (stereo not drawn), the half-maximal inhibitory concentration (IC50) in the series on Giardia intestinalis [2] is 500 nM.
With `Cc1ncc([N+](=O)[O-])n1CCOC(=O)Nc1ccccc1`, the half-inhibitory concentration (IC50) with Giardia intestinalis [2] is 500 nM.
Regarding `Cc1ccc(C(Br)C(Br)c2ncc([N+](=O)[O-])n2C)cc1` (stereo not drawn), the minimal inhibitory concentration (MIC) came out at 5 µM (≈ 2.02 µg/mL) against Giardia intestinalis [3], 5 µM (≈ 2.02 µg/mL) with Giardia intestinalis [4] and 10 µM (≈ 4.03 µg/mL) with Giardia intestinalis [5].
As for `O=C(CCCCCn1cc(C2CC2)nn1)Nc1ncc([N+](=O)[O-])s1`, the selectivity ratio at 48 h in [6] was more than 27; in series [7], more than 500; in [10], more than 27; in series [13], more than 27. For the same compound, the concentration for half-maximal inhibition (IC50) came out at 100 nM with Giardia intestinalis [8], 1800 nM in the series with Giardia intestinalis [9], 100 nM in the series on Giardia intestinalis [11] and 100 nM in the series on Giardia intestinalis [12].
Regarding `CSc1nc2cc(Cl)c(C(=O)Nc3ncc([N+](=O)[O-])s3)cc2n1C`, the concentration for half-maximal inhibition (IC50) came to 71 nM in the series with Giardia intestinalis [14]; 10 nM in the series with Giardia intestinalis [15]; 10 nM in the series on Giardia intestinalis [16]; 10 nM in the series on Giardia intestinalis [17]; 10 nM in the series with Giardia intestinalis [18]; 10 nM in the series on Giardia intestinalis [19].
Take `COc1ccc2[nH]c([S+]([O-])Cc3ncc(C)c(OC)c3C)nc2c1` (stereo not drawn) [OMEPRAZOLE]: the LC50 is 116 nM in the series on Giardia intestinalis [20], 544 nM in the series on Giardia intestinalis [21] and 116 nM in the series with Giardia intestinalis [22].
With `CCS(=O)(=O)CCn1c([N+](=O)[O-])cnc1C` [TINIDAZOLE], the IC50 in the series on Giardia intestinalis [23], with Giardia intestinalis [24], in the series on Giardia intestinalis [26], with Giardia intestinalis [27], with Giardia intestinalis [28] and in the series on Giardia intestinalis [29] was 300 nM throughout. For the same compound, the 50% inhibitory concentration (IC50) in the series with Giardia intestinalis [30], with Giardia intestinalis [31], in the series on Giardia intestinalis [32] and with Giardia intestinalis [33] was 300 nM each time. The same compound showed a half-life in [25] of 12 h.
Turning to `Cc1ncc([N+](=O)[O-])n1CCOC(=O)Nc1ccc(F)cc1`, in the series with Giardia intestinalis [2], the IC50 turned out to be 500 nM.
With `Cc1ncc([N+](=O)[O-])n1CC(C)OC(=O)Nc1ccc(Cl)cc1` (stereo not drawn), the IC50 with Giardia intestinalis [2] turned out to be 500 nM.
In the case of `CCN(CC)C(=S)SSC(=S)N(CC)CC`, the MLC came out at 0.8 µM (≈ 0.237 µg/mL) with Giardia intestinalis [34] and 1.5 µM (≈ 0.445 µg/mL) with Giardia intestinalis [36]. The compound also displayed an IC50 in the series on Giardia intestinalis [35] of 900 nM.
Compound `Cc1ncc([N+](=O)[O-])n1CCOC(=O)Nc1ccc([N+](=O)[O-])cc1` gave a half-maximal inhibitory concentration (IC50) with Giardia intestinalis [2] of 500 nM. This lies in the sub-micromolar range.
Turning to `Cc1ncc([N+](=O)[O-])n1CC(C)OC(=O)Nc1ccccc1` (stereo not drawn), the concentration for half-maximal inhibition (IC50) in the series on Giardia intestinalis [2] was determined as 500 nM.
Regarding `CCCCCCCCCCC[C@@H](C[C@@H]1OC(=O)[C@H]1CCCCCC)OC(=O)[C@H](CC(C)C)NC=O` [ORLISTAT], the IC50 in the series with Giardia intestinalis [37] was found to be 2800 nM.
Compound `CC(=O)Oc1ccccc1C(=O)Nc1ncc([N+](=O)[O-])s1` [NITAZOXANIDE] gave a half-life in [25] of 7.3 h.
